Data from PMC10451034, “Highly Efficient Photosensitizers with Molecular Vibrational Torsion for Cancer Photodynamic Therapy” (ACS Central Science, 2023).

Legend:
[1] = Triplet lifetime by laser flash photolysis; format: physicochemical; conditions: 5 μM in deaerated dichloromethane, λex = 610 nm
Excerpt: To probe the mechanism of the observed phenomenon and further validate our hypothesis, ultrafast excited-state dynamic behaviors were implemented by using femtosecond transient absorption spectroscopy (fs-TA) (Figures 3a and S4a–c). In order to obtain the complete process of excited states, a 350 nm laser was chosen as a pump to populate the high singlet excited states (Sn) from the ground state (S0). […] With the growth of delay time, the ESA of S1 gradually decayed (τ = 7.65 ps); meanwhile, beyond our expectation, accompanied by a particularly noticeable peak at ca. 583 nm increasing promptly, this new emerging ESA peak reached its maximum within about 21.98 ps. Similar phenomena were found in the transient spectra of the other three compounds (Figures S4d–f). However, for the control TCy7, there was no obvious formation of another ESA peak in transient spectra (Figure S5). […] Furthermore, the rate of X state formation was calculated to be 4.54 × 10^10 s^–1 for QTCy7-Ac based on the rise time (kX = 1/τX,rise), which was close to the order of magnitude of the intramolecular distorted vibration behavior. […] Meanwhile, the triplet lifetime of this series of molecules was evaluated and inspected for further applications (Figures 3d and S4g–i). […]
(§1) Photoexcited singlet oxygen production was detected by employed 1,3-diphenylisobenzofuran (DPBF) as the indicator. The absorbance of DPBF at 415 nm was regulated to about 1.0 in DCM. And the samples were irradiated with 660 nm light for various times, then the absorption spectra of different time nodes were recorded.
(§2) The singlet oxygen quantum yield (ΦΔ) was calculated by the following equation:
(§3) Where “Φ” represent the singlet oxygen quantum yield , “sam” and “std” represent QTCy7-R and MB, respectively. “m” is the slope of the absorbance of DPBF at 415 nm with time, F=1–10-O.D. (O.D. is the absorbance of samples at 660 nm). […]
The triplet life of QTCy7-R was measured by LP980 laser flash photolysis spectrometer (Edinburgh Instruments Ltd.) in combination with a Nd:YAG laser (Surelite I-10, Continuum Electro-Optics, Inc.). […]

[2] = Singlet oxygen quantum yield by DPBF decay curve method; format: physicochemical; conditions: for ΦΔ, singlet oxygen quantum yield: methylene blue as standard, 660 nm irradiation
Experimental: Afterward, the singlet oxygen yields of the series of molecules were preliminarily measured and analyzed by the 1,3-diphenylisobenzofuran (DPBF) decay curve method (Figures 2d,e and S2). […] Meanwhile, in order to exclude the effect of the rigid structure, ΦΔ of a Cy7-like reference molecule (TCy7C) with a rigidified structure but absence of an oxygen atom was measured. The singlet oxygen yield of TCy7C was 2.2%, even lower than that of TCy7 under the same conditions (Figure S3). […]
as §1, §2, §3

HepG2 cells = assay: Confocal imaging of cellular uptake, subcellular localization and membrane damage; format: cell-based, human; conditions: for cellular distribution / Pearson correlation (colocalization) coefficient with MitoTracker Green: HepG2 cells; for cellular distribution: incubated 90 min; for Pearson correlation (colocalization) coefficient with MitoTracker Green: mitochondria; for cell membrane damage on illumination: CLSM, illumination 0-4 min; for photostability in cells: fluorescence intensity in cells during light irradiation
Experimental: In view of QTCy7-R having strong singlet oxygen generation potency and reasonable wavelength, human hepatocellular carcinoma cells were selected for photoactivity experiments in vitro. On account of their low molecular weights and intrinsic positive cationic charge, QTCy7-R could be quickly taken up by cells within 90 min (Figure S19a,b). […] According to our supposition, the enhanced partial cationic charge caused by the introduction of the EWG in QTCy7-Ac or QTCy7-CHO made it easier for them to cling to the cell membrane with negative charge than to cross it.
Next, in order to verify the disruption effect on cell structural integrity of the ^1O2 generation by QTCy7-R under irradiation, JC-1 staining imaging was conducted to monitor the mitochondria membrane potential. […] On the other hand, cell membrane damage caused by the photooxidation of QTCy7-Ac and QTCy7-CHO could be confirmed by a visualized observation. […] Furthermore, the lactate dehydrogenase (LDH) content in cell culture medium was measured to characterize the extent of cell membrane damage.[49] […]
medium (DMEM, Invitrogen) with 10 % fetal bovine serum (Invitrogen) and 1% penicillinstreptomycin. All cells were treated at 37 °C with the humidified atmosphere containing 5% CO2 and 95% air. Before conducting cell imaging experiments, all types of cells were maintained on 35 mm glass-bottom cell dishes for 24 h.
Confocal fluorescence imaging
After culturing the cells in 35 mm glass-bottom cell dishes for 24 h, the DMEM medium was replaced with saline, then QTCy7-R was added (3 μM). The confocal fluorescence imaging was carried out and images were recorded. (λex = 640 nm, λem = 680-780 nm). In the suborganelle localization experiment s, the cells were incubated with 3 μM QTCy7-R for 90 min and then stained with LysoTracker Green DND 26 (200 nM) and MitoTracker Green FM (200 nM), respectively. After fluorescence imaging, colocalization coefficient was analyzed and recorded. (LysoTracker Green DND 26 and MitoTracker Green FM: λex = 488 nm, λem = 500-550 nm). […]

Row | SMILES | triplet lifetime [1] | ΦΔ, singlet oxygen quantum yield ([2]; in dichloromethane) | cellular distribution (HepG2 cells) | Pearson correlation (colocalization) coefficient with MitoTracker Green (HepG2 cells) | cell membrane damage on illumination (HepG2 cells) | photostability in cells (HepG2 cells) | ΦΔ, singlet oxygen yield ([2]; in dichloromethane, DPBF method) | singlet oxygen yield relative to TCy7 ([2]; under NIR irradiation)
1 | CCN1/C(=C/C=C2\C=C(C)C=C(/C=C/c3sc4ccccc4[n+]3CC)C2=O)Sc2ccccc21 [QTCy7-Me] | about 12 μs | 0.225 | could get inside cells | 0.92 | – | – | – | –
2 | CCN1/C(=C/C=C2\C=C(C=O)C=C(/C=C/c3sc4ccccc4[n+]3CC)C2=O)Sc2ccccc21 [QTCy7-CHO] | about 2 μs | 0.263 | effectively adhere to the cell membrane | – | did not cause severe cell membrane rupture | good photostability | – | –
3 | CCN1/C(=C/C=C2\C=C(c3ccccc3)C=C(/C=C/c3sc4ccccc4[n+]3CC)C2=O)Sc2ccccc21 [QTCy7-Ph] | about 12 μs | 0.212 | could get inside cells | 0.89 | – | – | – | –
4 | CCOC(=O)C1=C/C(=C\C=C2/Sc3ccccc3N2CC)C(=O)C(/C=C/c2sc3ccccc3[n+]2CC)=C1 [QTCy7-Ac] | – | 0.338 | effectively adhere to the cell membrane | – | formation of distinct bubblelike structures | good photostability | 33.8% | 13 fold
